The experiment addresses T1, ATP-sensitive inward rectifier potassium channel 11 (Homo sapiens, UniProt Q14654).
T1 sequence (Q14654 whole entry): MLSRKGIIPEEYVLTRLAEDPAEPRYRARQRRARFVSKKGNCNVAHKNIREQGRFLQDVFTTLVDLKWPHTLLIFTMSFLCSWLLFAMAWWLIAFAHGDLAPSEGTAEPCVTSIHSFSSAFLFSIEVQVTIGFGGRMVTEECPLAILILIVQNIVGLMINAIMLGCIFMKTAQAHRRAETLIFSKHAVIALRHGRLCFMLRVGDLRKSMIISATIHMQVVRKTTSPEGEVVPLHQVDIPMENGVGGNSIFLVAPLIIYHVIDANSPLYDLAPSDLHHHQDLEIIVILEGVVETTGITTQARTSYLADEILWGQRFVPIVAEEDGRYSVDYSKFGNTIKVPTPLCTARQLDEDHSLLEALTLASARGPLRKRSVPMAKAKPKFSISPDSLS
The experiment in a line: Channel opening activity at human bladder Kir6.2 channel containing SUR2B expressed in L cells by FLIPR assay.

56 molecules from BindingDB's records for doi:10.1021/jm7010194 (Abbott Laboratories, 2007) can be followed below.

Molecules are shown by their SMILES.

As usually defined, the EC50 is the concentration at which the effect is half-maximal. Molecule `CC(Cl)(Cl)C(NC(=O)c1cc(Cl)cc(Cl)c1)N/C(=N/C#N)Nc1ccc(C(F)(F)F)nc1` (stereo unspecified) returned an EC50 of 3720 nM. For the molecule `CC(Cl)(Cl)C(NC(=O)c1ccc(OC(F)(F)F)cc1)N/C(=N/C#N)Nc1cncc(Br)c1` (stereo unspecified), the 50% effective concentration (EC50) is above 100000 nM. `CC(Cl)(Cl)[C@H](NC(=O)c1ccc(Cl)cc1)N/C(=N/C#N)Nc1ccc(Cl)nc1`: a half-maximal response (EC50) required 2140 nM. Under `CC(Cl)(Cl)C(NC(=O)c1ccc(I)cc1)N/C(=N/C#N)Nc1ccc(Cl)nc1` (stereo unspecified) stands 891 nM; under `CC(Cl)(Cl)C(NC(=O)c1cccc(Cl)c1)N/C(=N/C#N)Nc1ccc(F)nc1` (stereo unspecified), 2290 nM; under `CC(Cl)(Cl)C(NC(=O)c1cccs1)N/C(=N/C#N)Nc1ccc(F)nc1` (stereo unspecified), 4570 nM.

For `CC(Cl)(Cl)C(NC(=O)c1ccc(F)cc1)N/C(=N/C#N)Nc1ccc(Cl)nc1` (stereo unspecified), the EC50 was 1290 nM.

Take `CC(Cl)(Cl)C(NC(=O)c1ccc(Cl)cc1)N/C(=N/C#N)Nc1cncc(Br)c1` (stereo unspecified): the EC50 turned out to be 646 nM. This EC50 is about 2-fold lower than that of the molecule before. `CC(Cl)(Cl)C(NC(=O)c1cccs1)N/C(=N/C#N)Nc1cncc(Br)c1` (stereo unspecified): the EC50 came to 1290 nM.

As for `CC(Cl)(Cl)C(NC(=O)c1cccc(F)c1)N/C(=N/C#N)Nc1ccc(C(F)(F)F)nc1` (stereo unspecified), a half-maximal effect (EC50) was put at 2290 nM. Against the preceding molecule, the EC50 is about 1.8-fold higher. In turn, `CC(Cl)(Cl)C(NC(=O)c1ccc(Cl)cc1)N/C(=N/C#N)Nc1ccc(C(F)(F)F)nc1` (stereo unspecified) gave a 50% effective concentration (EC50) of 1620 nM.

`CC(Cl)(Cl)C(NC(=O)c1ccc(I)cc1)N/C(=N/C#N)Nc1ccc(C(F)(F)F)nc1` (stereo unspecified) showed an EC50 of 7760 nM. This EC50 is about 4.8-fold higher than that of the molecule before. Under `CC(Cl)(Cl)C(NC(=O)c1cc(F)cc(F)c1)N/C(=N/C#N)Nc1cncc(Br)c1` (stereo unspecified) stands 1100 nM; under `CC(Cl)(Cl)[C@@H](NC(=O)c1ccc(Cl)cc1)N/C(=N/C#N)Nc1cccnc1`, 339 nM; under `CC(Cl)(Cl)C(NC(=O)c1ccc(Cl)cc1)N/C(=N/C#N)Nc1ccc(F)nc1` (stereo unspecified), 1510 nM. As for `CC(Cl)(Cl)C(NC(=O)c1ccc(Cl)cc1)N/C(=N/C#N)Nc1ccccc1F` (stereo unspecified), the figure is 12000 nM; as for `Cc1nc(C(F)(F)F)ccc1N/C(=N\C#N)NC(NC(=O)c1ccc(Cl)cc1)C(C)(Cl)Cl` (stereo unspecified), 9550 nM; as for `CC(Cl)(Cl)C(NC(=O)c1cccc(Cl)c1)N/C(=N/C#N)Nc1cncc(Br)c1` (stereo unspecified), 776 nM. As for `CC(Cl)(Cl)C(NC(=O)c1cc(F)cc(F)c1)N/C(=N/C#N)Nc1ccc(F)nc1` (stereo unspecified), the figure is 4270 nM; as for `COc1ncccc1NC(=NC#N)NC(NC(=O)c1ccc(Cl)cc1)C(C)(Cl)Cl` (stereo unspecified), 9770 nM. In the case of `Cc1ccc(C(=O)NC(N/C(=N/C#N)Nc2ccc(F)nc2)C(C)(Cl)Cl)cc1` (stereo unspecified), the EC50 is 4270 nM. Under `COc1ccc(N/C(=N\C#N)NC(NC(=O)c2ccc(Cl)cc2)C(C)(Cl)Cl)cn1` (stereo unspecified) stands 10500 nM; under `CC(Cl)(Cl)C(NC(=O)c1cccc(Cl)c1)N/C(=N/C#N)Nc1ccc(Cl)nc1` (stereo unspecified), 1660 nM. Under `Cc1cccc(C(=O)NC(N/C(=N/C#N)Nc2ccc(F)nc2)C(C)(Cl)Cl)c1` (stereo unspecified) stands 4270 nM; under `CC(Cl)(Cl)C(NC(=O)c1cc(Cl)cc(Cl)c1)N/C(=N/C#N)Nc1ccc(F)nc1` (stereo unspecified), 2040 nM; under `CC(Cl)(Cl)C(NC(=O)c1cc(Cl)cc(Cl)c1)N/C(=N/C#N)Nc1ccc(Cl)nc1` (stereo unspecified), 813 nM. In turn, `CC(Cl)(Cl)C(NC(=O)c1cccs1)N/C(=N/C#N)Nc1ccc(Cl)nc1` (stereo unspecified) registered a 50% effective concentration (EC50) of 2750 nM. As for `CC(Cl)(Cl)C(NC(=O)c1ccc(C(F)(F)F)cc1)N/C(=N/C#N)Nc1ccc(Cl)nc1` (stereo unspecified), the figure is 5010 nM; as for `CC(Cl)(Cl)C(NC(=O)c1ccc(C(F)(F)F)cc1)N/C(=N/C#N)Nc1ccc(C(F)(F)F)nc1` (stereo unspecified), 26900 nM; as for `Cc1cccc(C(=O)NC(N/C(=N/C#N)Nc2cncc(Br)c2)C(C)(Cl)Cl)c1` (stereo unspecified), 1660 nM. For `Cc1ccc(C(=O)NC(N/C(=N/C#N)Nc2ccc(C(F)(F)F)nc2)C(C)(Cl)Cl)cc1` (stereo unspecified), the response was half-maximal at 3800 nM (EC50). This EC50 is about 2.3-fold higher than that of the molecule before.

`Cc1ccc(N/C(=N\C#N)NC(NC(=O)c2ccc(Cl)cc2)C(C)(Cl)Cl)cn1` (stereo unspecified) displayed an EC50 of 2240 nM. As for `Cc1cncc(N/C(=N\C#N)NC(NC(=O)c2ccc(Cl)cc2)C(C)(Cl)Cl)c1` (stereo unspecified), the figure is 759 nM; as for `CC(Cl)(Cl)C(NC(=O)c1ccc(Cl)cc1)N/C(=N/C#N)Nc1ccc(Cl)nc1` (stereo unspecified), 457 nM.

The molecule `Cc1cccc(C(=O)NC(N/C(=N/C#N)Nc2ccc(C(F)(F)F)nc2)C(C)(Cl)Cl)c1` (stereo unspecified) showed a 50% effective concentration (EC50) of 2570 nM. This EC50 is about 5.6-fold higher than that of the molecule before.

`CC(Cl)(Cl)C(NC(=O)c1cccs1)N/C(=N/C#N)Nc1ccc(C(F)(F)F)nc1` (stereo unspecified) registered a half-maximal effective concentration (EC50) of 1740 nM. The EC50 values of the last two molecules are within 1.5-fold of each other. In turn, `COc1cc(OC)cc(C(=O)NC(N/C(=N/C#N)Nc2ccc(Cl)nc2)C(C)(Cl)Cl)c1` (stereo unspecified) returned a 50% effective concentration (EC50) of 8910 nM. For `CC(Cl)(Cl)C(NC(=O)c1cc(Cl)cc(Cl)c1)N/C(=N/C#N)Nc1cncc(Br)c1` (stereo unspecified), the 50% effective concentration (EC50) was 2630 nM. As for `CC(Cl)(Cl)C(NC(=O)c1ccc(Cl)cc1)NC(=NC#N)Nc1cccnc1Cl` (stereo unspecified), the figure is 6030 nM; as for `CC(Cl)(Cl)C(NC(=O)c1ccc(Br)cc1)N/C(=N/C#N)Nc1ccc(Cl)nc1` (stereo unspecified), 537 nM; as for `CC(Cl)(Cl)C(NC(=O)c1ccccc1)N/C(=N/C#N)Nc1ccc(Cl)nc1` (stereo unspecified), 2040 nM. As for `COc1cnccc1C(=O)NC(N/C(=N/C#N)Nc1ccc(Cl)nc1)C(C)(Cl)Cl` (stereo unspecified), the figure is 6610 nM; as for `Cc1cccc(C(=O)NC(N/C(=N/C#N)Nc2ccc(Cl)nc2)C(C)(Cl)Cl)c1` (stereo unspecified), 1700 nM.

For `CC(Cl)(Cl)C(NC(=O)c1ccc(F)cc1)N/C(=N/C#N)Nc1ccc(F)nc1` (stereo unspecified), the EC50 came to 11700 nM.

With `CC(Cl)(Cl)[C@@H](NC(=O)c1ccc(Cl)cc1)N/C(=N/C#N)Nc1ccc(Cl)nc1`, the EC50 came out at 1070 nM. As for `CC(Cl)(Cl)C(NC(=O)c1ccc(OC(F)(F)F)cc1)N/C(=N/C#N)Nc1ccc(Cl)nc1` (stereo unspecified), the figure is 5370 nM; as for `CC(Cl)(Cl)C(NC(=O)c1ccc(Br)cc1)N/C(=N/C#N)Nc1ccc(C(F)(F)F)nc1` (stereo unspecified), above 100000 nM. Under `CC(Cl)(Cl)C(NC(=O)c1ccc(OC(F)(F)F)cc1)N/C(=N/C#N)Nc1ccc(F)nc1` (stereo unspecified) stands 8910 nM; under `Cc1ccc(C(=O)NC(N/C(=N/C#N)Nc2cncc(Br)c2)C(C)(Cl)Cl)cc1` (stereo unspecified), 1320 nM; under `CC(Cl)(Cl)C(NC(=O)c1ccc(F)cc1)N/C(=N/C#N)Nc1cncc(Br)c1` (stereo unspecified), 955 nM. As for `CC(Cl)(Cl)C(NC(=O)c1cc(F)cc(F)c1)N/C(=N/C#N)Nc1ccc(Cl)nc1` (stereo unspecified), the figure is 1100 nM; as for `CC(Cl)(Cl)C(NC(=O)c1cc(F)cc(F)c1)N/C(=N/C#N)Nc1ccc(C(F)(F)F)nc1` (stereo unspecified), 1180 nM. `CC(Cl)(Cl)C(NC(=O)c1cccc(F)c1)N/C(=N/C#N)Nc1ccc(Cl)nc1` (stereo unspecified) gave an EC50 of 5370 nM.

In the case of `CC(Cl)(Cl)C(NC(=O)c1cccc(Cl)c1)N/C(=N/C#N)Nc1ccc(C(F)(F)F)nc1` (stereo unspecified), the 50% effective concentration (EC50) came out at 6760 nM. The EC50 values of the last two molecules are within 1.5-fold of each other.

Molecule `CC(Cl)(Cl)C(NC(=O)c1ccc(F)cc1)N/C(=N/C#N)Nc1ccc(C(F)(F)F)nc1` (stereo unspecified) returned an EC50 of 2090 nM. This EC50 lies about 3.2-fold lower than the previous one. Regarding `Cc1ccc(C(=O)NC(N/C(=N/C#N)Nc2ccc(Cl)nc2)C(C)(Cl)Cl)cc1` (stereo unspecified), the EC50 is 912 nM.
